In patent US8410112B2, “Compounds useful as inhibitors of ATR kinase” (Vertex Pharmaceuticals Incorporated, priority 2008, dated 2013):

Molecular target: T1, full-length ATR (Homo sapiens, UniProt Q13535)
T1 construct: in the presence of 5 nM full-length ATR
Assay: ATR Inhibition Assay (radioactive-phosphate incorporation)
Type: biochemical
Conditions: Ki(app); 5 nM full-length ATR, 10 μM ATP, 800 μM target peptide, 25° C.
Method in brief: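 Buffer was 50 mM Tris/HCl pH 7.5, 10 mM MgCl2, 1 mM DTT, with 5 nM enzyme, 10 μM [γ-33P]ATP and 800 μM target peptide at 25 °C. Compound was pre-incubated 10 min before ATP start, and the reaction was stopped after 24 h. Phosphocellulose filter capture; Ki(app) came from non-linear regression of background-corrected initial rates.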

T1 sequence (Q13535 whole entry): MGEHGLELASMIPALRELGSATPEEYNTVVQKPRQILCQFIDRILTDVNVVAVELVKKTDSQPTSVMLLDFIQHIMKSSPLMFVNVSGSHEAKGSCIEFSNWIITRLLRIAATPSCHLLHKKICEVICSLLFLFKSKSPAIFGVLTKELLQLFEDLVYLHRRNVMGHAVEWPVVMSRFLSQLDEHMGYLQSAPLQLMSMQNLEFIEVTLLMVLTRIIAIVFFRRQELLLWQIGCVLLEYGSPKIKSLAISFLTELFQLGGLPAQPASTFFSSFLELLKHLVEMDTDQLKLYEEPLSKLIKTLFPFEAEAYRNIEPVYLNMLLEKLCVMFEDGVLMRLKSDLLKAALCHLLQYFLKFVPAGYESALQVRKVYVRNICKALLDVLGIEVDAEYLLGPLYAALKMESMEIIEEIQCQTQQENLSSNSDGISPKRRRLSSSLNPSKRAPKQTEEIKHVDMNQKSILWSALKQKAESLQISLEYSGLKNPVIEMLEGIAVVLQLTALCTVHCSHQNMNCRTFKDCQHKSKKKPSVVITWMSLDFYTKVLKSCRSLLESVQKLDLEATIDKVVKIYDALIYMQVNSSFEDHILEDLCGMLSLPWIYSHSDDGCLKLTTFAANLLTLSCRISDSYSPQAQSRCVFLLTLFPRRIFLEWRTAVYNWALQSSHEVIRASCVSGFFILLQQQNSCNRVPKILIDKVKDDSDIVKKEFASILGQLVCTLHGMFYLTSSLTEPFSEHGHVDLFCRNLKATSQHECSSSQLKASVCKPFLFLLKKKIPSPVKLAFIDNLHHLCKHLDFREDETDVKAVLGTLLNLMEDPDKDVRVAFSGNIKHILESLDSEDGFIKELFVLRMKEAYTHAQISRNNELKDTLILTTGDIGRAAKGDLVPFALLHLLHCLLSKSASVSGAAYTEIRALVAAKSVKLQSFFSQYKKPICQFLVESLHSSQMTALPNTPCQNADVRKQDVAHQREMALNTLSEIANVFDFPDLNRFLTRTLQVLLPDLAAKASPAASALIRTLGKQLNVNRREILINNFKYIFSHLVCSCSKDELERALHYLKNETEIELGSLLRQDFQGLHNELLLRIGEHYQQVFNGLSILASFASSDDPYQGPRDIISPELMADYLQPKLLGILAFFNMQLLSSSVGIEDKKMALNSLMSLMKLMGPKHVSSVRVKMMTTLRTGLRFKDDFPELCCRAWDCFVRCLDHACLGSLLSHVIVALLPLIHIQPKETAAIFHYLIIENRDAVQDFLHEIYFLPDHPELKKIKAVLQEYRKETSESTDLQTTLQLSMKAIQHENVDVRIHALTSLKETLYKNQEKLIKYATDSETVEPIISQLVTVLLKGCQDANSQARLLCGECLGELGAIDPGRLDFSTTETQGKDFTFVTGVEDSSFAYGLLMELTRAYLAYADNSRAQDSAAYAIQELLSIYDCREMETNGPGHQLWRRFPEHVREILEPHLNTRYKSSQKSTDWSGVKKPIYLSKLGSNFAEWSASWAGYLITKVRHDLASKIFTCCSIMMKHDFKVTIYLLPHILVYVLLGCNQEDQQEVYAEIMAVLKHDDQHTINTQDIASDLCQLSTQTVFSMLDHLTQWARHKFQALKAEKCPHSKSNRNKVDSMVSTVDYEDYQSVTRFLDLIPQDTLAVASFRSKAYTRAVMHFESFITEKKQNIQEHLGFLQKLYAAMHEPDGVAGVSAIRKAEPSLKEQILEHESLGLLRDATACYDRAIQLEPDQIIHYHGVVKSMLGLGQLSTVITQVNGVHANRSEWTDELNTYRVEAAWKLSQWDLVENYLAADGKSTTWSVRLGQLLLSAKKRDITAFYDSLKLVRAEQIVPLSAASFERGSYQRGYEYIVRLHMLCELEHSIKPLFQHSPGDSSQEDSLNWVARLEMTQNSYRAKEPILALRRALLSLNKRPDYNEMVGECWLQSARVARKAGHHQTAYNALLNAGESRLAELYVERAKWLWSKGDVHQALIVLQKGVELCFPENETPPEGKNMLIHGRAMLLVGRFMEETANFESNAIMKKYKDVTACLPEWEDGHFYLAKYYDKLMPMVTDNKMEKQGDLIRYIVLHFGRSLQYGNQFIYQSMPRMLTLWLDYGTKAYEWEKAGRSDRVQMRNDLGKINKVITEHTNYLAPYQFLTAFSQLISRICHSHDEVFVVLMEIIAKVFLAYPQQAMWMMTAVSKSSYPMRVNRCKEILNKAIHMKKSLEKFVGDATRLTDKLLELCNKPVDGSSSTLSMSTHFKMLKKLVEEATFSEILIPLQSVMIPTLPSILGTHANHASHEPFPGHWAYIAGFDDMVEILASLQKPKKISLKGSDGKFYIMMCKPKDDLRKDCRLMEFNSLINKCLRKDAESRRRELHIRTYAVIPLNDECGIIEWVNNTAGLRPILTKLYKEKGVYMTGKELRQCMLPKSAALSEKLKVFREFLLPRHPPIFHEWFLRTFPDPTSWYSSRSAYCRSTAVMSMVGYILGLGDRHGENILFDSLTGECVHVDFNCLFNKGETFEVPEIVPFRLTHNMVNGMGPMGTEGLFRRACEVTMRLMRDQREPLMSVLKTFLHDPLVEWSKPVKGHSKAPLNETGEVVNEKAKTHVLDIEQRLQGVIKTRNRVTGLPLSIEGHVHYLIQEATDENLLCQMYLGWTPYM

Ki [nM] | Compound
1000 to 10000 | Nc1ncc(N2CCN(C(=O)Cc3ccccc3)CC2)nc1C(=O)Nc1ccccn1 [Compound I-141, 3-amino-6-(4-(2-phenylethanoyl)piperazin-1-yl)-N-(pyridin-2-yl)pyrazine-2-carboxamide]
< 100 | CNCc1ccc(-c2nnc(-c3nc(N4CC[C@@H](CNC(C)=O)C4)cnc3N)o2)cc1 [Compound I-323, N-[[(3S)-1-[5-Amino-6-[5-[4-(methylaminomethyl)phenyl]-1,3,4-oxadiazol-2-yl]pyrazin-2-yl]pyrrolidin-3-yl]methyl]acetamide]
< 100 | Nc1ncc(C2=CCN(S(=O)(=O)c3ccoc3)CC2)nc1-c1nnc(-c2ccccc2)o1 [Compound I-123, 5-(1-(furan-3-ylsulfonyl)-1,2,3,6-tetrahydropyridin-4-yl)-3-(5-phenyl-1,3,4-oxadiazol-2-yl)pyrazin-2-amine]
100 to 1000 | COCC(=O)N1CCN(c2cnc(N)c(-c3nnc(-c4ccccc4)o3)n2)CC1 [Compound I-179, 1-(4-(5-amino-6-(5-phenyl-1,3,4-oxadiazol-2-yl)pyrazin-2-yl)piperazin-1-yl)-2-methoxyethanone]
< 100 | CCS(=O)(=O)N1CCN(c2cnc(N)c(-c3nnc(-c4ccc(CNC)cc4)o3)n2)CC1 [Compound I-325, 5-(4-Ethylsulfonylpiperazin-1-yl)-3-[5-[4-(methylaminomethyl)phenyl]-1,3,4-oxadiazol-2-yl]pyrazin-2-amine]
1000 to 10000 | Nc1ncc(N2CCN(C(=O)c3ccccc3)CC2)nc1C(=O)Nc1ccccn1 [Compound I-109, 3-amino-6-(4-(phenylcarbonyl)piperazin-1-yl)-N-(pyridin-2-yl)pyrazine-2-carboxamide]
100 to 1000 | Nc1ncc(N2CCN(C(=O)c3c(F)cccc3F)CC2)nc1-c1nnc(-c2ccccc2)o1 [Compound I-203, (4-(5-amino-6-(5-phenyl-1,3,4-oxadiazol-2-yl)pyrazin-2-yl)piperazin-1-yl)(2,6-difluorophenyl)methanone]
1000 to 10000 | Nc1ncc(N2CCN(CCO)CC2)nc1-c1nnc(-c2ccccc2)o1 [Compound I-306, 2-[4-[5-amino-6-(5-phenyl-1,3,4-oxadiazol-2-yl)pyrazin-2-yl]piperazin-1-yl]ethanol]
1000 to 10000 | Nc1ncc(N2CCN(C(=O)N3CCOCC3)CC2)nc1C(=O)Nc1ccccn1 [Compound I-114, 3-amino-6-(4-(morpholine-4-carbonyl)piperazin-1-yl)-N-(pyridin-2-yl)pyrazine-2-carboxamide]
100 to 1000 | CCS(=O)(=O)N1CCN(c2cnc(N)c(-c3nnc(-c4cccs4)o3)n2)CC1 [Compound I-312, 5-(4-ethylsulfonylpiperazin-1-yl)-3-[5-(2-thienyl)-1,3,4-oxadiazol-2-yl]pyrazin-2-amine]
< 100 | CCS(=O)(=O)N1CC=C(c2cnc(N)c(-c3nc4ccc(F)c(F)c4[nH]3)n2)CC1 [Compound I-153, 3-(6,7-difluoro-1H-benzo[d]imidazol-2-yl)-5-(1-(ethylsulfonyl)-1,2,3,6-tetrahydropyridin-4-yl)pyrazin-2-amine]
100 to 1000 | CNCc1ccc(-c2nnc(-c3nc(N4C[C@@H]5C(C(=O)N(C)C)[C@@H]5C4)cnc3N)o2)cc1 (stereo partly drawn) [Compound I-351, (1R,5S)-3-[5-Amino-6-[5-[4-(methylaminomethyl)phenyl]-1,3,4-oxadiazol-2-yl]pyrazin-2-yl]-N,N-dimethyl-3-azabicyclo[3.1.0]hexane-6-carboxamide]
< 100 | COC(=O)N1CC=C(c2cnc(N)c(-c3nnc(-c4ccccc4)o3)n2)CC1 [Compound I-228, methyl 4-(5-amino-6-(5-phenyl-1,3,4-oxadiazol-2-yl)pyrazin-2-yl)-5,6-dihydropyridine-1(2H)-carboxylate]
100 to 1000 | Nc1ncc(N2CCN(S(=O)(=O)Cc3ccccc3)CC2)nc1-c1nnc(-c2ccccc2)o1 [Compound I-99, 5-(4-(benzylsulfonyl)piperazin-1-yl)-3-(5-phenyl-1,3,4-oxadiazol-2-yl)pyrazin-2-amine]
1000 to 10000 | CN(C)CC(=O)N1CCN(c2cnc(N)c(C(=O)Nc3ccccn3)n2)CC1 [Compound I-150, 3-amino-6-(4-(2-(dimethylamino)ethanoyl)piperazin-1-yl)-N-(pyridin-2-yl)pyrazine-2-carboxamide]
< 100 | Cn1cnc(S(=O)(=O)N2CC=C(c3cnc(N)c(-c4nc5ccccc5[nH]4)n3)CC2)c1 [Compound I-94, 3-(1H-benzo[d]imidazol-2-yl)-5-(1-(1-methyl-1H-imidazol-4-ylsulfonyl)-1,2,3,6-tetrahydropyridin-4-yl)pyrazin-2-amine]
100 to 1000 | CCC(=O)N1CC=C(c2cnc(N)c(-c3nnc(-c4ccc(CNC)cc4)o3)n2)CC1 [Compound I-335, 1-[4-[5-Amino-6-[5-[4-(methylaminomethyl)phenyl]-1,3,4-oxadiazol-2-yl]pyrazin-2-yl]-3,6-dihydro-2H-pyridin-1-yl]propan-1-one]
100 to 1000 | CCCS(=O)(=O)N1CCN(c2cnc(N)c(C(=O)Nc3ccccn3)n2)CC1 [Compound I-240, 3-amino-6-(4-(propylsulfonyl)piperazin-1-yl)-N-(pyridin-2-yl)pyrazine-2-carboxamide]

Ki [nM] | Compound
< 100 | Nc1ncc(C2=CCN(C(=O)C3CCCC3)CC2)nc1-c1nnc(-c2ccccc2)o1 [Compound I-127, (4-(5-amino-6-(5-phenyl-1,3,4-oxadiazol-2-yl)pyrazin-2-yl)-5,6-dihydropyridin-1(2H)-yl)(cyclopentyl)methanone]
100 to 1000 | CCS(=O)(=O)N1CC=C(c2cnc(N)c(-c3nnc(-c4ccc(CNC)cc4)o3)n2)CC1 [Compound I-339, 5-(1-Ethylsulfonyl-3,6-dihydro-2H-pyridin-4-yl)-3-[5-[4-(methylaminomethyl)phenyl]-1,3,4-oxadiazol-2-yl]pyrazin-2-amine]
1000 to 10000 | COCCOC(=O)N1CCN(c2cnc(N)c(-c3nc4ccccc4[nH]3)n2)CC1 [Compound I-266, 2-methoxyethyl 4-(5-amino-6-(1H-benzo[d]imidazol-2-yl)pyrazin-2-yl)piperazine-1-carboxylate]
100 to 1000 | CC(=O)N[C@H]1CCN(c2cnc(N)c(-c3nc4ccccc4[nH]3)n2)C1 [Compound I-185, (S)-N-(1-(5-amino-6-(1H-benzo[d]imidazol-2-yl)pyrazin-2-yl)pyrrolidin-3-yl)ethanamide]
100 to 1000 | CC(=O)N[C@H]1CCN(c2cnc(N)c(-c3nc4ccc(C)cc4[nH]3)n2)C1 [Compound I-4, (S)-N-(1-(5-amino-6-(6-methyl-1H-benzo[d]imidazol-2-yl)pyrazin-2-yl)pyrrolidin-3-yl)ethanamide]
100 to 1000 | Nc1ncc(N2Cc3ccccc3C2=O)nc1-c1nc2ccccc2[nH]1 [Compound I-304, 2-[5-amino-6-(1H-benzimidazol-2-yl)pyrazin-2-yl]isoindolin-1-one]
1000 to 10000 | Cc1ccc2nc(-c3nc(N4CCC(=O)CC4)cnc3N)[nH]c2c1 [Compound I-11, 1-(5-amino-6-(6-methyl-1H-benzo[d]imidazol-2-yl)pyrazin-2-yl)piperidin-4-one]
100 to 1000 | CC(C)C(=O)N1CCN(c2cnc(N)c(-c3nnc(-c4ccccc4)o3)n2)CC1 [Compound I-190, 1-(4-(5-amino-6-(5-phenyl-1,3,4-oxadiazol-2-yl)pyrazin-2-yl)piperazin-1-yl)-2-methylpropan-1-one]
100 to 1000 | Nc1ncc(N2CCN(C(=O)c3cccnc3)CC2)nc1-c1nnc(-c2ccccc2)o1 [Compound I-183, (4-(5-amino-6-(5-phenyl-1,3,4-oxadiazol-2-yl)pyrazin-2-yl)piperazin-1-yl)(pyridin-3-yl)methanone]
< 100 | CNCc1ccc(-c2nnc(-c3nc(N4C[C@H]5CCC(OS(C)(=O)=O)[C@H]5C4)cnc3N)o2)cc1 (some centres unmarked) [Compound I-320]
1000 to 10000 | Nc1ncc(N2CCNCC2)nc1-c1nc2ccccc2[nH]1 [Compound I-40, 3-(1H-benzo[d]imidazol-2-yl)-5-(piperazin-1-yl)pyrazin-2-amine]
100 to 1000 | CN(C)CC(=O)N1CC=C(c2cnc(N)c(-c3nnc(-c4ccccc4)o3)n2)CC1 [Compound I-134, 1-(4-(5-amino-6-(5-phenyl-1,3,4-oxadiazol-2-yl)pyrazin-2-yl)-5,6-dihydropyridin-1(2H)-yl)-2-(dimethylamino)ethanone]
< 100 | CC(C)C(=O)N1CC=C(c2cnc(N)c(-c3nc4cccnc4[nH]3)n2)CC1 [Compound I-67, 1-(4-(5-amino-6-(3H-imidazo[4,5-b]pyridin-2-yl)pyrazin-2-yl)-5,6-dihydropyridin-1(2H)-yl)-2-methylpropan-1-one]
< 100 | CCS(=O)(=O)N1CC=C(c2cnc(N)c(C(=O)Nc3nc4ccccc4[nH]3)n2)CC1 [Compound I-172, 3-amino-N-(1H-benzo[d]imidazol-2-yl)-6-(1-(ethylsulfonyl)-1,2,3,6-tetrahydropyridin-4-yl)pyrazine-2-carboxamide]
100 to 1000 | Nc1ncc(N2CCN(C(=O)Cc3ccccc3)CC2)nc1-c1nnc(-c2ccccc2)o1 [Compound I-197, 1-(4-(5-amino-6-(5-phenyl-1,3,4-oxadiazol-2-yl)pyrazin-2-yl)piperazin-1-yl)-2-phenylethanone]
100 to 1000 | CNCc1ccc(-c2nnc(-c3nc(C4CC4C(=O)NCC(O)CO)cnc3N)o2)cc1 (centres unmarked) [Compound I-376, 2-[5-Amino-6-[5-[4-(methylaminomethyl)phenyl]-1,3,4-oxadiazol-2-yl]pyrazin-2-yl]-N-(2,3-dihydroxypropyl)cyclopropanecarboxamide]
100 to 1000 | COCCOC(=O)N1CC=C(c2cnc(N)c(-c3nc4ccccc4[nH]3)n2)CC1 [Compound I-243, 2-methoxyethyl 4-(5-amino-6-(1H-benzo[d]imidazol-2-yl)pyrazin-2-yl)-5,6-dihydropyridine-1(2H)-carboxylate]
